System: influenza NAs

“4-Guanidino-Neu5Acα2-3LacNAcβPorNH-PEG4-Biotin [Compound 10d]” was tested, and the “resistance of immobilized sialoside to NA-catalyzed cleavage during BLI incubation” value was “resistant to the NA-catalyzed cleavage”.

For “4NH2Neu5Acα2-3LacNAcβPorNH-PEG4-Biotin [Compound 9d]”, the “resistance of immobilized sialoside to NA-catalyzed cleavage during BLI incubation” value was “bound to the NAs but was partially cleaved off during the incubation”.

From US20260242405A1, “N-DERIVATIZED SIALIC ACIDS AND RELATED SIALOSIDES” (THE REGENTS OF THE UNIVERSITY OF CALIFORNIA, priority 2023, published 2026)
